The results in this text go back to patent US5750362A, “Methods for identifying substances with a potential herbicidal or growth-regulating action by means of plant transporter proteins, the use of the transporter proteins, and substances with a herbicidal and growth-regulating action” (BASF Aktiengesellschaft, priority 1993, dated 1998).

Where two headings read alike, the source gives them in different places.

The subject of assay [1] is sucrose transporter P62 (StSUT1). Kind of assay: Activation of sucrose transport by preincubation of the yeast cells. The class given is cell-based, Solanum tuberosum. The settings on record: for Effect on sucrose transport as a function of concentration: preincubation of yeast cells, result in words. On the procedure: The transport of sucrose by the sucrose transporter P62 (StSUT1) from Solanum tuberosum can be increased by previous energizing of the yeast cells by incubation in glucose, stachyose and adenine. The same increase in transport activity is achieved by reducing the pH to pH 3.8 in the measurement. The measurement of transport to determine the activation takes place as described in Example 3 but the cells are incubated before the actual measurement not in 10 mM glucose for 5 min but in solutions of various concentrations of glucose, stachyose and adenine for 5 min. Yeast cells which are not incubated in solutions of these substances before the measurement act as control. The following table indicates the extent of activation of sucrose transport with various concentrations of glucose, stachyose and adenine compared with the control.

The target in assay [2] is T1, amino-acid transporter AAP2 (Arabidopsis thaliana, UniProt Q38967).
T1 construct: expressed in transfected cells; host or cells: Saccharomyces cerevisiae mutant 22574d (also printed 22457d)
T1 sequence (Q38967 1-493): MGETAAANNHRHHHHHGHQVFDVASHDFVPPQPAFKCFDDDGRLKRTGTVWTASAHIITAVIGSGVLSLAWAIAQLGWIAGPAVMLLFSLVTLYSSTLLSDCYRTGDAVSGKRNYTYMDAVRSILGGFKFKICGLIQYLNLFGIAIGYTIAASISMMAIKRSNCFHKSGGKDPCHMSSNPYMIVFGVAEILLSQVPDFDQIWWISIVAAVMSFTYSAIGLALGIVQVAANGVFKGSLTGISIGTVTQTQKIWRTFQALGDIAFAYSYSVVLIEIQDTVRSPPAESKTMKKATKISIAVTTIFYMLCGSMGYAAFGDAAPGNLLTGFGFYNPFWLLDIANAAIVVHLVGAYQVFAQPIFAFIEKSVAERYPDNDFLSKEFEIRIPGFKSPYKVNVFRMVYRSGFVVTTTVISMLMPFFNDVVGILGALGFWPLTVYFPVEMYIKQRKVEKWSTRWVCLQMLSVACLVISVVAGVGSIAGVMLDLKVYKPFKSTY
Kind of assay: Uptake of radiolabeled L-proline by yeast mutant 22457d-AAP2 expressing the plant amino-acid transporter. In kind it is cell-based. The settings on record: read-out: Activity relative to control [%]. On the procedure:
Transporter investigations are carried out on the yeast mutant 22574d (Jauniaux & Grenson, Eur. J. Biochem. 190: 39-44, 1990), which harbors a mutation in the gene for amino-acid permease, and on the yeast mutant JT 16 (Tanaka and Fink, Gene 38: 205-214, 1985) which is incapable of histidine uptake, for identification of inhibitors of plant amino-acid transporters. These mutants are transformed with cDNA sequences which code for plant amino-acid transporters and lead to expression of functional transporters in the yeast cells. The cDNA sequences are cDNA sequences which code for the amino-acid transporters AAP1 and AAP2 from Arabidopsis thaliana (Frommer et al., 1993, Proc. Natl. Acad. Sci. USA 90: 5944-5948; Kwart et al., 1993, Plant J. 4:993-1002). For the measurements, cells of these mutants are cultured in minimal medium (NAAG+5 mmol/l proline) at 28° C. and harvested in the logarithmic phase (OD600 =0.6). The cells are spun down in a centrifuge at 4000 rpm and 4 degrees Celsius for 10 minutes and washed 2× with AUB buffer (modified AAB buffer, Ljungdahl et al.). The cell concentration is adjusted to an OD600 of 25 in AUB buffer.
100 μl portions of the cell suspension are mixed with 100 μl of a 1 mmol/l L-proline solution (18.5 kBq of L-[14C]-proline) and various concentrations of the appropriate substance to be investigated. After 20, 60, 120 and 180 seconds, a 50 μl aliquot is removed, diluted in 4 ml -of ice-cold AUB buffer and filtered through glass fever [sic] filter. In order to remove nonspecifically bound L-[14C]-proline, the cells are washed 2× with 4 ml of ice-cold water each time. The radioactivity retained on the glass filter is then measured in a liquid scintillation counter. The radioactivity reflects the amount of radiolabeled proline taken up by the cells. Uptake of radiolabeled proline without addition of a potential inhibitor is determined as one control. Cells of each of the mutants 22574d and JY 16 which have not been transformed with cDNA sequences coding for plant amino-acid transporters are used as further control. Results of measurements of this type on the mutants 22457d-AAP2 which expresses the amino-acid transporter AAP2 from Arabisopsis [sic] thaliana are shown in the following table.
For the investigations, yeast cells of the strain 22457d were transformed with a cDNA sequence which codes for the amino-acid transporter AAP2, and the uptake of radiolabeled proline in the presence of various substances was determined. The various substances tested, their concentration, and the activity of the transporter, shown as percentage activity of the control with which no potential inhibitors were added, are indicated.

Assay [3] concerns the target T2, sucrose transporter P62 (StSUT1) (Solanum tuberosum, UniProt Q43653).
T2 construct: whole-cell [14C]-sucrose uptake; no tag or borders given
T2 sequence (Q43653 1-516): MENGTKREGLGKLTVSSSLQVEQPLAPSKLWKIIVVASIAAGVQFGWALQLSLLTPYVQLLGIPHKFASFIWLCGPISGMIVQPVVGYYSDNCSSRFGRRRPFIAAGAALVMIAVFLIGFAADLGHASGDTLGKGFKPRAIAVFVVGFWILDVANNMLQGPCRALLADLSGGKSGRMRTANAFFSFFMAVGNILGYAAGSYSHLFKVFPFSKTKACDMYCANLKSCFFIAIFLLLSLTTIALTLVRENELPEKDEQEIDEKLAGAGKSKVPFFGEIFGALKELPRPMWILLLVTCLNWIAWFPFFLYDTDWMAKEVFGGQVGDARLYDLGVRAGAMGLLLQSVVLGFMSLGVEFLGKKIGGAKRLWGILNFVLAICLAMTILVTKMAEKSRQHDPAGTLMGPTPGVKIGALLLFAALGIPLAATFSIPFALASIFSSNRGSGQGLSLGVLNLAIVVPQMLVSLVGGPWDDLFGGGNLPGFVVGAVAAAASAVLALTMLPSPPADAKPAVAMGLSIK
In words: [14C]-sucrose uptake by yeast strain SUSY-7-P62 (StSUT1) expressing the potato sucrose transporter. The settings on record: pH 3.8, read-out: Activity relative to the control [%]. In kind it is cell-based. From the text: Yeast cells of the strain SUSY7 (Riesmeier et al., 1992, EMBO J. 11: 4705-4713) are used to identify substances which have an inhibitory effect on sucrose transporters from potato. Cells of this strain are transformed with a cDNA sequence which codes for the sucrose transporter P62 (StSUT1) from potato (WO 94/00574, Riesmeier et al., 1993, Plant Cell 5:1591-1598) and which ensures expression of a functional transporter in the cells. The resulting yeast strain was called SUSY-7-P62 (StSUT1). The yeast cells are cultured in minimal medium (SD +2% (w/v) sucrose, pH 3.8) at 28° C. and harvested in the logarithmic phase (OD600 =0.6). The cells are spun down at 4000 rpm for 10 minutes and washed twice with SD medium. A cell concentration of c=50 g/l in SD medium is adjusted according to the wet weight of the cells, and 200 Al aliquot fractions are taken. Before the actual reaction, the cells are incubated in 10 mM glucose for 5 min and adjusted to pH 3.8 with MES buffer. The reaction is started by adding 200 Al of a 0.2 mmol/l [14C]-sucrose solution (3 mCi/mmol) in SD medium (pH 3.8). After 20, 60, 120, 180 and 240 seconds, 70 μl portions of the suspension are removed and pipetted into 4 ml of ice-cold water in order to stop the reaction. The cells are filtered off on glass fiber filters and washed twice with ice-cold water. The radioactivity on the filters is subsequently determined in a liquid scintillation counter. The substances to be tested are added 30 seconds before addition of the sucrose. The uptake of radiolabeled sucrose without addition of a potential inhibitor is determined as one control. Cells of the strain SUSY7 which are not transformed with cDNA sequences coding for a sucrose transporter from potato are employed as further control.
The various tested substances, their concentration and the activity of the transporter, shown as percentage activity of the control in which no potential inhibitors were added, are indicated.

In assay [4] the target is T3, ammonium transporter AMT1 (Arabidopsis thaliana, UniProt P54144).
T3 construct: expressed in transfected cells; host or cells: Saccharomyces cerevisiae 26972c (mutations in MEP1 and MEP2)
T3 sequence (P54144 1-501): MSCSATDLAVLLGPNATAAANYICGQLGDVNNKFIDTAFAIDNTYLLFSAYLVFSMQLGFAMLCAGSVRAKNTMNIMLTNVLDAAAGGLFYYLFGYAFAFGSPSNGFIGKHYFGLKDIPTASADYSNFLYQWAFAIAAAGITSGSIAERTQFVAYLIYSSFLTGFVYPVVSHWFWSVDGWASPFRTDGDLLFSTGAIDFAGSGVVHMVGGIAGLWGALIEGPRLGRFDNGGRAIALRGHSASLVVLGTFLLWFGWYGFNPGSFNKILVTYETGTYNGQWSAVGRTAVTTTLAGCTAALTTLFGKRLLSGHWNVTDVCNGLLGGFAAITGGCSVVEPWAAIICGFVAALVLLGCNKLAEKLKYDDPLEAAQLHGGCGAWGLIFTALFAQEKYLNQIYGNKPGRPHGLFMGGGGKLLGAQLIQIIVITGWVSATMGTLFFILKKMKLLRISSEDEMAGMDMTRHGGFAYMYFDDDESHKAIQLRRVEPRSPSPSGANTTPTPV
In words: cell-based.
Description: The measurements of transport identify inhibitors of plant ammonium transporters are carried out with the structural analog methylamine because radiolabeled ammonium is not commercially obtainable.
The yeast cells are transformed by standard methods with cDNA sequences which code for an ammonium transporter from plants and which permit expression of a functional transporter in the yeast cells. […] The cells are cultured in NAAG-medium (2% glucose, 1.7 g/l yeast nitrogen-base w/o amino acids and ammonium sulfate (Difco), supplemented with 500 μg/ml L-proline) at 28 degrees Celsius, and harvested in the logarithmic phase (OD660.=0.6). The cells are then spun down in a centrifuge at 4000 rpm and 4 degrees Celsius for 10 minutes, washed twice with 20 mM sodium phosphate buffer, pH 7, and taken up in the same buffer to an 0D660 of 8. 200 μl aliquot fractions of the cell suspension are taken. 5 minutes before the actual measurement,the yeasts are activated by addition of 100 mM glucose and incubated at 30 degrees Celsius. To start the reaction, 100 μl of the cell suspension are added to 100 µl of reaction mixture (20 mM Na phosphate buffer, pH7; 18.5 kBq of [^14 C]-methylamine (NEN); 100 M methylamine; substance to be tested depending on the experiment (see FIG. 4)). In each case 10, 60, 120 and 180 seconds after starting the reaction, 50 μl aliquots are taken, added to 4 ml of ice-cold 5 mM methylamine solution and filtered on glass fibre filters. After the filters have been washed with a further 8 ml of a methylamine solution, the radioactivity on the filters is subsequently determined in a liquid scintillation counter. Inhibitors are added 60 seconds before adding the glucose.
The uptake of radiolabeled methylamine without addition of a potential inhibitor is determined as one control.

The next assay concerns plants. In words: Herbicidal activity on plants. In kind it is in vivo. The settings on record: whole plants; result in words.
The mark [5] stands for this setting: sucrose transport after 5 min preincubation with the substance at c1 [0.2 mol/l], 200000 µM.
[6] abbreviates: sucrose transport after 5 min preincubation with the substance at c2 [2 mmol/l].

Regarding `OC[C@H]1O[C@H](OC[C@H]2O[C@H](OC[C@H]3O[C@H](O[C@]4(CO)O[C@H](CO)[C@@H](O)[C@@H]4O)[C@H](O)[C@@H](O)[C@@H]3O)[C@H](O)[C@@H](O)[C@H]2O)[C@H](O)[C@@H](O)[C@H]1O` [Stachyose], the “Effect on sucrose transport as a function of concentration” value in assay [1] is recorded as “stimulates sucrose transport at low concentrations, while this effect is reversed at high concentrations (c>0.4 mmol/l)”. Besides, the “Activity relative to the control [%]” value in assay [1] (setting [5]) worked out at 144 ± 9%; in assay [1] (setting [6]), 101 ± 8%.

For the compound `O=C(O)[C@H]1CCCN1` [D-Proline], in assay [2], the remaining activity at 10000 µM came to 90%.

Regarding `Nc1ncnc2nc[nH]c12` [Adenine], the “Effect on sucrose transport as a function of concentration” value in assay [1] is “linear relation between the adenine concentration and the increase in the sucrose transport rate”. In addition, the “Activity relative to the control [%]” value in assay [1] (setting [5]) is listed as 141 ± 5%; in assay [1] (setting [6]) it was 225 ± 6%.

For `O=[N+]([O-])c1ccc(O)c([N+](=O)[O-])c1` [DNP], the remaining activity at 100 µM in assay [3] came out at 3%; in assay [2], 7.6 ± 1.6%; in assay [4] (pH 7, read-out: Activity relative to the control [%]), 18%.

As to `O=C(O)C1CCN1` (stereo not drawn) [Azetidine-2-carboxylate], the remaining activity at 10000 µM in assay [2] (L-[14C]-proline uptake, tested substance 10 mM) came to 62%.

With `CN` [Methylamine], in the assay on plants, the “Herbicidal activity on plants” value was “herbicidal activity on plants”. Further, in assay [4] (pH 7, [14C]-methylamine uptake, tested substance 500 μM, read-out: Activity relative to the control [%]), the remaining activity at 500 µM was 40%.

Take `OC[C@H]1OC(O)[C@H](O)[C@@H](O)[C@@H]1O` (stereo partly drawn) [Glucose]: the “Activity relative to the control [%]” value was found to be 89 ± 5% in assay [1] (setting [5]) and 90 ± 3% in assay [1] (setting [6]).
